Patent US11161830B2, “4-pyridone compound or salt thereof, and pharmaceutical composition and formulation including same” (priority 2017, dated 2021)
Several values for one entry are separate records, joined by “and”; a condition that tells them apart may be missing. Equal entries are not always repeated. Where two headings read alike, the source gives them in different places.

Tests used:
HBV (genotype AeUS) = experiment: Test Example 2-1: anti-HBV assay in PXB-cells (fresh human hepatocytes); type: cell-based, hepatitis B virus; conditions: Hepatitis B virus, Hepatocyte, PXB-cells infected with HBV genotype AeUS, culture supernatant on day 32 post infection
Procedure, shortened: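 PXB-cells (primary human hepatocytes from chimeric mice) infected with mouse-serum-derived HBV genotype AeUS at ~10 copies/cell with 4% PEG-8000. Compound dosed days 17–32 post-infection, refreshed every 5 days, 37 °C. Day-32 supernatant HBV-DNA by real-time PCR and HBsAg by chemiluminescent immunoassay, as % of untreated control; IC50 by log-linear regression.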

HBV genotype C = experiment: Test Example 3-1: in vivo efficacy study in PXB mouse (chimeric mouse with human hepatocytes); parameters: species or system hepatitis B virus; conditions: orally 100 mg/kg twice a day for 14 days
Method: An in vivo efficacy study with a. PXB mouse (a chimeric mouse with human hepatocytes) was carried out in PhenixBio Co., Ltd. 27-Week-or-more-old male mice having body weights of 15 g or more after the elapse of 12 weeks from the infection with HBV genotype C were allocated into three groups (2 mice per group) and used.
The compounds of Examples 6-5 and 10-2 were each orally administered at 100 mg/kg twice a day for 14 days. The other group was taken as a control group for which administration was not carried out. A first administration day was taken as day 0, and before administration on day 0, day 3, Day 7, and day 10, and on day 14, the blood was collected from the orbital venous plexus under anesthesia with isoflurane. The serum was separated from the collected blood and purified with a QIAamp (registered trademark) DNA Blood Mini Kit (manufactured by QIAGEN). The amount of HBV-DNA in the obtained solution was absolutely quantified by a real-time PCR method. In addition, the amount of HBsAg and the amount of HBcrAg in the serum were each absolutely quantified by chemiluminescent enzyme immunoassay using Lumipulse (registered trademark) HBsAg-HQ (manufactured by Fujirebio Inc.) and Lumipulse (registered trademark) HBcrAg (manufactured by Fujirebio Inc.).

[1] = Day 0 (before administration), individual mice

Row | Structure (SMILES) | IC50 (HBV (genotype AeUS); read-out: IC50 HBV-DNA) [nM] | IC50 (HBV (genotype AeUS); read-out: IC50 HBsAg) [nM] | HBV-DNA in serum (HBV genotype C; [1]) | HBcrAg in serum (HBV genotype C; [1]) | HBsAg in serum (HBV genotype C; [1]) | HBV-DNA in serum (HBV genotype C; Day 3, individual mice) | HBcrAg in serum (HBV genotype C; Day 3, individual mice) | HBsAg in serum (HBV genotype C; Day 3, individual mice) | HBV-DNA in serum (HBV genotype C; Day 7, individual mice) | HBcrAg in serum (HBV genotype C; Day 7, individual mice) | HBsAg in serum (HBV genotype C; Day 7, individual mice) | HBV-DNA in serum (HBV genotype C; Day 10, individual mice) | HBsAg in serum (HBV genotype C; Day 10, individual mice) | HBV-DNA in serum (HBV genotype C; Day 14, individual mice) | HBcrAg in serum (HBV genotype C; Day 14, individual mice) | HBsAg in serum (HBV genotype C; Day 14, individual mice)
1 | COCCN1CCN(c2nc3ccc(-n4cc(C(=O)O)c(=O)cc4-c4ccc(N5CCCC5)c(Cl)c4)cc3s2)CC1 [Example 6-5, 6-(3-chloro-4-(pyrrolidin-1-yl)phenyl)-1-(2-(4-(2-methoxyethyl)piperazine-1-yl)benzo[d]thiazol-6-yl)-4-oxo-1,4-dihydropyridine-3-carboxylic acid] | < 8 | 16 | 2.3E+09 copies/mL and 2.1E+09 copies/mL | 4.5E+08 U/mL and 2.9E+08 U/mL | 3,578 IU/mL and 2,370 IU/mL | 8.7E+08 copies/mL and 7.1E+08 copies/mL | 1.5E+08 U/mL and 9.7E+07 U/mL | 781 IU/mL and 357 IU/mL | 2.7E+08 copies/mL and 2.9E+08 copies/mL | 8.7E+07 U/mL and 7.7E+07 U/mL | 570 IU/mL and 345 IU/mL | 3.4E+08 copies/mL and 6.3E+08 copies/mL | 588 IU/mL and 355 IU/mL | 3.3E+08 copies/mL and 8.4E+08 copies/mL | 7.5E+07 U/mL and 9.1E+07 U/mL | 540 IU/mL and 349 IU/mL
2 | COC[C@H]1CCCN1c1nc2ccc(-n3cc(C(=O)O)c(=O)cc3-c3ccc(N4CC[C@@H](OC)C4)cc3)cc2s1 [Example 10-2, 1-(2-((R)-2-(methoxymethyl)pyrrolidin-1-yl)benzo[d]thiazol-6-yl)-6-(4-((R)-3-methoxypyrrolidin-1-yl)phenyl)-4-oxo-1,4-dihydropyridine-3-carboxylic acid] | 18 | 22 | 1.5E+09 copies/mL and 3.2E+09 copies/mL | 2.7E+08 U/mL and 4.1E+08 U/mL | 2,930 IU/mL and 2,629 IU/mL | 1.0E+09 copies/mL and 1.4E+09 copies/mL | 8.8E+07 U/mL and 1.4E+08 U/mL | 638 IU/mL and 564 IU/mL | 6.9E+08 copies/mL and 4.7E+08 copies/mL | 7.5E+07 U/mL and 7.3E+07 U/mL | 450 IU/mL and 429 IU/mL | 8.4E+08 copies/mL and 6.4E+08 copies/mL | 476 IU/mL and 407 IU/mL | 9.6E+08 copies/mL and 1.3E+09 copies/mL | 7.8E+07 U/mL and 9.8E+07 U/mL | 522 IU/mL and 477 IU/mL
